Here are results for 6 molecules from patent US9443060B2, “Method and system to provide personalized pharmaceutical compositions and dosages” (Volant Holdings GMBH, priority 2009, dated 2016).

Series [1] relates to metabolic syndrome. The experiment in a line: FS index / neural net model of cardiovascular risk in metabolic syndrome patient populations. Format: in vivo, human. How it is done:
The FS index of MS comprises the following parameters: Fasting Blood Glucose, Fasting Insulin, HBA1c, BMI, AST, Triglycerides, Glucose Supply-Demand (S/D) index, and in certain cases, Proinsulin. Each parameter was mathematically arranged to increase as MS worsened, and weighted approximately equally in the prediction of MS progression and risk for CV events. […] FS index values were calculated from serial laboratory and clinical data over timeframes ranging between 2 and 10 years.
Neural Net Models and Data Display Methods. […] Unless otherwise stated, standard deviations (z-score) vs. time are presented in the individual and mean population graphics.
For purposes of analysis, clinical and laboratory parameters were converted into modified z-scores as follows: • A mean normal value (described as “mean” in the following) was selected based on review of literature and various published laboratory compendia. The Standard Deviation (SD) of each parameter was set to one half of the normal range. The modified z-score is calculated as follows: z=(Patient value−“mean”)/SD • On the graphs, the z-score is reported as the number of SD.
The FS index considered the following: Fasting Blood Glucose, Fasting Insulin, HBA1c, BMI, AST, Triglycerides, Glucose Supply-Demand (S/D) index, and in some cases Proinsulin. […] Each of these parameters was mathematically arranged to increase as Metabolic Syndrome worsened, and weighted approximately equally in the prediction of Metabolic Syndrome progression and risk for CV events.
The FS index was then applied to well-studied patient populations using a neural net model.
[formula] Where FBG is Fasting Blood Glucose in mg/dl and normal value is 100 mg/dl TG is Triglycerides in mg/dl normal value is <150 HBA1c is hemoglobin A1c in %, normal value is <6% BMI is body mass index as kg/m2 where a normal value is 20 and obese begins above 25 AST is Aspartate Transferase also called SGOT in IU/liter and a normal value is 5-50 FB insulin is fasting Blood insulin concentration in nmol/liter, a normal value is 4.0

Series [2] deals with insulin resistance (IR). The experiment in a line: Glucose supply and insulin demand model: effect on insulin resistance. In kind it is in vivo, human. The conditions noted are these: adjustment factor = decrease in insulin resistance at the therapeutic dose of Table 1; T2D. How it is done: (§1) Therapeutic targets of the glucose supply (CE, 1+2; HGU, 3; GNG, 4; IR, 5) and insulin demand (PGU, 6; PIE, 7) model are presented in FIG. 1. To identify quantitative differences between antidiabetic agents on CE, HGU, GNG, IR, PGU, and PIE, multidatabase searches (Cochrane Central Register of Controlled Trials and Cochrane Register of Systematic Reviews, Embase, OVID Healthstar, OVID Journals, and PubMed) were conducted cross-referencing title and keywords for all selected antidiabetic therapies and their respective targets.
(§2) Alpha-glucosidase, biguanide, and thiazolidinedione (TZD) studies with long-term, pre-post design at maximal therapeutic doses were identified to simulate chronic administration. To maintain consistency with cardiovascular trials and accommodate known influences of hyperglycemia and hyperinsulinemia on the respective targets,^13-16 studies including patients with HbA1c in the range of 6-8% and body mass index (BMI)≧30 kg/m^2 were preferentially selected. In the event multiple studies were available to identify the effect of an agent on a therapeutic target, the mean percent change was used. Conversely, if there was evidence that an agent would elicit a response on a given target but no mathematical representation of the difference was provided, conservative estimates consistent with the scale of other agents and the degree of glucose regulation were instituted to best represent the expected effect. Individual agents were then characterized for the 24 h percent change from baseline for CE, HGU, GNG, IR, PGU, and PIE. Carbohydrate exposure was determined as the combined effect of caloric intake and intestinal carbohydrate absorption. Hepatic glucose uptake was defined as the reported value obtained immediately following oral glucose loading. Because GNG is known to be enhanced in the fasting state and persistent throughout the prandial phase,^17,18 effect was determined during the fasting state and considered equivalent throughout the prandial phase. For studies evaluating fasting glucose and insulin concentrations, an index of IR was determined by homeostasis model assessment of insulin resistance (HOM-AIR) using the following formula: Insulin (mU/liter)×Glucose (mmol)/22.5.^19 To account for known differences in secretory and uptake dynamics during the fasting and prandial phases, studies identifying the impact of therapies during the fasting state (or simulated hyperinsulinemic euglycemic clamp) and prandial phase (or oral glucose load insulin clamp) were specifically identified for changes in PGU (glucose infusion rate) and PIE (insulin concentrations) according to Equation (1): […]
(§3) For sulfonylurea and insulin-based therapies, insulin concentration time profiles were obtained and superimposed on the baseline 24 h insulin concentration time profile of T2D patients (FIG. 2) to calculate the increase in PIE (trapezoidal rule).^20 Calculated increases in incremental and cumulative insulin exposure were correlated to known insulin dose-response effects on HGU, GNG, and PGU (FIG. 3),^18,21 according to the equation y=mx+b. Twenty-four-hour increases in HGU, PGU, and PIE and decreases in GNG were compared to baseline values and percent change calculated.
(§4) With alpha-glucosidase, biguanide, TZD, secretagogue, and insulin therapies characterized for their respective impacts on CE, HGU, GNG, IR, PIE, and PGU, identification of their effect on the glucose supply (decrease in CE, increase in HGU, decrease in GNG, decrease in IR) and insulin demand (increase in PIE, increase in PGU) dynamic was assessed according to Equation (2), which provides the SD ratio according to the invention: […]

The subject of series [3] is hepatic gluconeogenesis (GNG). The experiment in a line: Glucose supply and insulin demand model: effect on hepatic gluconeogenesis. Format: in vivo, human. The conditions noted are these: adjustment factor = decrease in hepatic gluconeogenesis at the therapeutic dose of Table 1; T2D. How it is done:
as §1, §2, §3, §4

For series [4], the system named is hepatic gluconeogenesis (GNG). Details: endogenous glucose output: unit not given here. The conditions noted are these: cited from earlier work.
In series [5] the test system is peripheral insulin exposure (PIE). In words: Glucose supply and insulin demand model: effect on peripheral insulin exposure. In kind it is in vivo, human. Particulars: adjustment factor = increase in peripheral insulin exposure at the therapeutic dose of Table 1; T2D. On the procedure: as §1, §2, §3, §4
Twenty-four-hour steady state insulin concentration time curves were superimposed on the baseline secretion profile of the standard T2D patient.

The subject of series [6] is hepatic glucose uptake (HGU). The experiment in a line: Glucose supply and insulin demand model: effect on hepatic glucose uptake. In kind it is in vivo, human. Particulars: adjustment factor = increase in hepatic glucose uptake at the therapeutic dose of Table 1; T2D. On the procedure:
as §1, §2, §3, §4

The test system of series [7] is peripheral glucose uptake (PGU). In words: Glucose supply and insulin demand model: effect on peripheral glucose uptake. In kind it is in vivo, human. The conditions noted are these: adjustment factor = increase in peripheral glucose uptake at the therapeutic dose of Table 1; T2D. On the procedure:
as §1, §2, §3, §4

Series [8] deals with carbohydrate exposure (CE). In words: Glucose supply and insulin demand model: effect on carbohydrate exposure. Particulars: adjustment factor = decrease in carbohydrate exposure at the therapeutic dose of Table 1; T2D. Details: scale not given here. Format: in vivo, human. On the procedure:
as §1, §2, §3, §4

The conditions of series [9]: initiation of insulin in T2D patients; duration and intensity dependent; cited from earlier work.

With `N[C@@H](CC(=O)N1CCn2c(nnc2C(F)(F)F)C1)Cc1cc(F)c(F)cc1F` [Sitagliptin], the “FS index response to treatment” value in series [1] (normal 20-50, 61 T2D on metformin, 100 RYGB, 18 Brake, 33 exenatide, 12 sitagliptin patients) is “beneficial response to the diabetes component of metabolic syndrome”. The “other parameters of metabolic syndrome (BMI/weight, HBSD, lipids, NAFLD, blood pressure, insulin)” value in series [1] (same patient populations as FS index) was “weight slowly increases or stays the same, lipid abnormalities do not resolve and NAFLD abnormalities do not resolve”.
On to `OCCN1C[C@H](O)[C@@H](O)[C@H](O)[C@H]1CO` [Miglitol], for which the IR reduction in [2] was 0.15. The molecule further showed a GNG inhibition in series [3] of 0.05. Besides, the hepatic glucose output in series [4] (Schnack, miglitol 300 mg/day, eight weeks, euglycemic clamp, poorly controlled T2D, placebo 0.35±0.17, not significant) is listed as 0.37±0.15 mg/kg^−1/min^−1. Further, the “change in hepatic glucose production” value in series [4] (Sels, miglitol 200 mg at bedtime for 1 week, T2D) is “not associated with a change in hepatic glucose production”. In series [5], the PIE amounted to 0.05. Also, in series [6], the HGU uptake came out at 0.15. In addition, in [7], the PGU is listed as 0.25.
For the molecule Insulin Lispro, in [2], the IR reduction amounted to 0.00. For the same molecule, the GNG inhibition in series [3] was 0.14. Besides, the CE inhibition in [8] is 0.00. Also, the PIE in series [5] is 0.42. In addition, in series [6], the HGU uptake was found to be 0.23. The molecule also had a PGU in series [7] of 0.80.
Molecule Insulin Ultralente came in with an IR reduction in series [2] of 0.00. The molecule further showed a GNG inhibition in [3] of 0.08. The CE inhibition in series [8] came to 0.00. Further, in [5], the PIE turned out to be 0.24. Moreover, the HGU uptake in [6] came to 0.17. In series [7], this molecule registered a PGU of 0.38.
For Insulin Aspart Protamine, the IR reduction in series [2] was found to be 0.00. The molecule further showed a GNG inhibition in series [3] of 0.10. For the same molecule, the CE inhibition in series [8] was 0.00. For the same molecule, the PIE in [5] is recorded as 0.28. The same molecule returned an HGU uptake in series [6] of 0.23. This molecule returned a PGU in series [7] of 0.40.
For insulin, the “plasma C5:^2H2O ratio” value in series [4] (Gastaldelli, euglycemic hyperinsulinemic clamp, plasma insulin 113±6 μU/ml, T2D, basal 0.60±0.02) is 0.25±0.02. Moreover, the endogenous glucose output in series [4] (Gastaldelli, euglycemic hyperinsulinemic clamp, plasma insulin 113±6 μU/ml, T2D, basal 15.2±0.4) is recorded as 7.1±0.9. Moreover, the weight gain in [9] is given as 5-10%.
